# US20050014689A1, “Remedies for life style-related diseases or cibophobia and method of screening the same” (priority 2001, published 2005)
# Tested on: clone 901 mRNA
# Test: Effect of intracerebroventricular antisense DNA administration on food consumption of normal and obese mice
# Assay type: in vivo
# Settings: 30 μg/mouse into lateral ventricle
# Source text: reagent: clone 901 antisense DNA was a mixture of two kinds of 25mer antisense DNAs relative to the vicinity of the gene initiation codon and synthesis, thiolation and HPLC purification were committed to Nihon Bio Service Co., Ltd.
# Test animal: male C57BL/6N (hereinafter normal mouse) and C57BL db/db (hereinafter obese mouse) (SPF grade) were purchased from Charles River, Japan, Inc. and CLEA JAPAN, INC., respectively, and after preliminary breeding, normal mice were used for the test at the age of 9 weeks and the obese mice were used for the test at the age of 11 weeks.
# Breeding environment: The mice were bred in a room controlled to a temperature of not lower than 20° C. and not higher than 26° C., relative humidity of not less than 30% and not more than 70%, lighting cycle of 8:00-20:00 lighting and 20:00-8:00 lights-out. During breeding, the mice were allowed a free access to a solid feed (CE-2, CLEA JAPAN) and sterile distilled water.
# As an antisense DNA administration liquid, an artificial cerebrospinal fluid (0.166 g/L CaCl2, 7.014 g/L NaCl, 0.298 g/L KCl, 0.203 g/L MgCl2.6H2O, 2.10 g/L NaHCO3) containing 7.5 μg/μl of antisense DNA was prepared. In addition, an artificial cerebrospinal fluid free of antisense DNA was used as a solvent control liquid.
# The normal mice and obese mice were divided into two groups each, and after fasting overnight, an antisense DNA was administered at 4 μl/mouse (30 μg/mouse in the amount of antisense DNA) to one group and a solvent control liquid (4 μl/mouse) was administered into the lateral ventricle of the other group, simultaneously with the lighting at 8:00 a.m.
# Feeding of mice was resumed immediately after administration, and food consumption was calculated at 12 hours after administration. […] The food consumption from 12 hr to 24 hr after administration was calculated. […] In the normal mice, no effect of antisense DNA of clone 901 was found.
substance,measurement,setting,value
"antisense DNA of clone 901: mixture of two thiolated 25mer antisense DNAs (SEQ ID No 3 and No 4) to the vicinity of the clone 901 initiation codon (antisense 1 GCTTCGCAGCGCTCGCTGGGCGGCG; antisense 2 AGTGGGCCACAGCTCCACATGGCAG; DNA, all phosphorothioate, methylation of C not given here)",effect on food consumption,"normal mice (C57BL/6N), 12 hr to 24 hr after administration",no effect
same,effect on food consumption,"normal mice (C57BL/6N), immediately after administration to 12 hours",food consumption-decreasing effect
same,effect on food consumption,"obese mice (C57BL db/db), 12 hr to 24 hr after administration",suppressed to the same level with the normal mice
same,effect on food consumption,"obese mice (C57BL db/db), immediately after administration to 12 hours",food consumption-decreasing effect
